Values after ≈ are worked out from the molar mass of the structure shown. Where two headings read alike, the source gives them in different places.
Columns and labels:
Pseudomonas aeruginosa = assay: Agar well diffusion method
B. subtilis = assay: MIC, two-fold microbroth dilution method; details: Bacillus subtilis
P. aeruginosa = assay: MIC, two-fold microbroth dilution method; details: Pseudomonas aeruginosa, read-out: MIC (µg/mL) P. aeruginosa
[1] = test system: G positive and G negative bacteria; assay: Agar well diffusion method, summary; type: cell-based; details: reference drug, range over four strains
Source text: As a control, DMSO solvent was employed.

Bacillus subtilis = assay: Agar well diffusion method
Staphylococcus aureus = assay: Agar well diffusion method
E. coli = assay: MIC, two-fold microbroth dilution method; details: Escherichia coli, read-out: MIC (µg/mL) E. coli
S. aureus = assay: MIC, two-fold microbroth dilution method; details: Staphylococcus aureus
Escherichia coli = assay: Agar well diffusion method
Candida albicans = assay: Agar well diffusion method
C. albicans = assay: MIC, two-fold microbroth dilution method; details: Candida albicans, read-out: MIC (µg/mL) C. albicans
A. flavus = assay: MIC, two-fold microbroth dilution method; details: Aspergillus flavus, read-out: MIC (µg/mL) A. flavus
Aspergillus flavus = assay: Agar well diffusion method
[2] = test system: fungi (Candida albicans and Aspergillus flavus); assay: Agar well diffusion method, summary; details: range over strains
L-type calcium channels = details: cited from earlier work
BTK [3] = target: T1, BTK (Homo sapiens, UniProt Q06187); parameters: method as in PMID 34146919; details: introduction; cited from earlier work
T1 sequence (Q06187 whole entry): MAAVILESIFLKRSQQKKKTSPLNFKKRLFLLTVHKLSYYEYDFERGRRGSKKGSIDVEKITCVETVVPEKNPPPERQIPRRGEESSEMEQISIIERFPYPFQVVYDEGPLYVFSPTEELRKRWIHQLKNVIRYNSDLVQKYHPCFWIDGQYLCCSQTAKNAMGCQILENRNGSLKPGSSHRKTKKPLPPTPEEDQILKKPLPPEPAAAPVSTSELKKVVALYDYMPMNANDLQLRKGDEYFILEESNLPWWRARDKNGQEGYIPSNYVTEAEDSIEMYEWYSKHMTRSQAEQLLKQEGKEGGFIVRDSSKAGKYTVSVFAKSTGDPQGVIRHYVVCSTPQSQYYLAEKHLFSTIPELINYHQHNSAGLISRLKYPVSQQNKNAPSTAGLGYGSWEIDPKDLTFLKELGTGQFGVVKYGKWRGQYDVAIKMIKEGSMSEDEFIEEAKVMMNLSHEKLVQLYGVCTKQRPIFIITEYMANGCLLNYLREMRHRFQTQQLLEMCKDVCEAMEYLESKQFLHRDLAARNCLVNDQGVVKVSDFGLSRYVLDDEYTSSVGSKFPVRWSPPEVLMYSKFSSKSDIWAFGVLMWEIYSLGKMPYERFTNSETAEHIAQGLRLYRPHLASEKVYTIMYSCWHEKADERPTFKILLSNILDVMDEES

HER-2 [4] = target: T2, HER-2 (Homo sapiens, UniProt P04626); parameters: method as in PMID 34146919; details: introduction; cited from earlier work
T2 sequence (P04626 23-1255): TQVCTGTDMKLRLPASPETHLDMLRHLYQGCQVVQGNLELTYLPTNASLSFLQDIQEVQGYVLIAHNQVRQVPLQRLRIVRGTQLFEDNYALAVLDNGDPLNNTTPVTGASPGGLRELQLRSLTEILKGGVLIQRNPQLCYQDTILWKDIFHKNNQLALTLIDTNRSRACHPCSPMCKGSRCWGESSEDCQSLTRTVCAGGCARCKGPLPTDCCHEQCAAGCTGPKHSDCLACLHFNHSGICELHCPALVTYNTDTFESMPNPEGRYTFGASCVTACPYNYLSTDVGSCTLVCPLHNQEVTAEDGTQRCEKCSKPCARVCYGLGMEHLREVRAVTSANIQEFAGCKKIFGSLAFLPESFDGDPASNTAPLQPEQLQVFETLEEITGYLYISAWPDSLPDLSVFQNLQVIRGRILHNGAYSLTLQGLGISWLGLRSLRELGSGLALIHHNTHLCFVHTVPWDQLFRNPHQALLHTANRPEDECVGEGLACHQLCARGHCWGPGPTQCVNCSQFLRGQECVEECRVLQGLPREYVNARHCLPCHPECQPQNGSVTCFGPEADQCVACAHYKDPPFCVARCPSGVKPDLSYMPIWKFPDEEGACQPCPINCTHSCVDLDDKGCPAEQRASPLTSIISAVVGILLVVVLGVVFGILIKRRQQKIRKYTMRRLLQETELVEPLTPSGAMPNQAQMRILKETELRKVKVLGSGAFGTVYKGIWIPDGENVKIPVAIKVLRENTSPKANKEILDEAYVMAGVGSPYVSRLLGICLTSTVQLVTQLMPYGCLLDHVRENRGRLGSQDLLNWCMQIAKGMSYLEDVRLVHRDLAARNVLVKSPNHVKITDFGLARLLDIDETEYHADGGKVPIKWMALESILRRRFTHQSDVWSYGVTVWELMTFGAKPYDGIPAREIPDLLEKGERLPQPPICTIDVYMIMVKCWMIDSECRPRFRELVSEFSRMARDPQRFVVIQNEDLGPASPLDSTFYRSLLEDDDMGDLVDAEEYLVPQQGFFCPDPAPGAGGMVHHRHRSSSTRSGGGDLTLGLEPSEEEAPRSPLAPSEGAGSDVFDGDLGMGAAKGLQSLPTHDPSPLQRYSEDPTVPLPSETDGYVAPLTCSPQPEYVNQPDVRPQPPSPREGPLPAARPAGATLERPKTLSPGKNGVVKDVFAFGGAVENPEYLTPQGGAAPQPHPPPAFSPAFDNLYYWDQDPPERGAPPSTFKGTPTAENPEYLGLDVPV

EGFR = EGFR (Homo sapiens, UniProt P00533); parameters: method as in PMID 34146919; details: introduction; cited from earlier work
Chain of EGFR (P00533 25-1210): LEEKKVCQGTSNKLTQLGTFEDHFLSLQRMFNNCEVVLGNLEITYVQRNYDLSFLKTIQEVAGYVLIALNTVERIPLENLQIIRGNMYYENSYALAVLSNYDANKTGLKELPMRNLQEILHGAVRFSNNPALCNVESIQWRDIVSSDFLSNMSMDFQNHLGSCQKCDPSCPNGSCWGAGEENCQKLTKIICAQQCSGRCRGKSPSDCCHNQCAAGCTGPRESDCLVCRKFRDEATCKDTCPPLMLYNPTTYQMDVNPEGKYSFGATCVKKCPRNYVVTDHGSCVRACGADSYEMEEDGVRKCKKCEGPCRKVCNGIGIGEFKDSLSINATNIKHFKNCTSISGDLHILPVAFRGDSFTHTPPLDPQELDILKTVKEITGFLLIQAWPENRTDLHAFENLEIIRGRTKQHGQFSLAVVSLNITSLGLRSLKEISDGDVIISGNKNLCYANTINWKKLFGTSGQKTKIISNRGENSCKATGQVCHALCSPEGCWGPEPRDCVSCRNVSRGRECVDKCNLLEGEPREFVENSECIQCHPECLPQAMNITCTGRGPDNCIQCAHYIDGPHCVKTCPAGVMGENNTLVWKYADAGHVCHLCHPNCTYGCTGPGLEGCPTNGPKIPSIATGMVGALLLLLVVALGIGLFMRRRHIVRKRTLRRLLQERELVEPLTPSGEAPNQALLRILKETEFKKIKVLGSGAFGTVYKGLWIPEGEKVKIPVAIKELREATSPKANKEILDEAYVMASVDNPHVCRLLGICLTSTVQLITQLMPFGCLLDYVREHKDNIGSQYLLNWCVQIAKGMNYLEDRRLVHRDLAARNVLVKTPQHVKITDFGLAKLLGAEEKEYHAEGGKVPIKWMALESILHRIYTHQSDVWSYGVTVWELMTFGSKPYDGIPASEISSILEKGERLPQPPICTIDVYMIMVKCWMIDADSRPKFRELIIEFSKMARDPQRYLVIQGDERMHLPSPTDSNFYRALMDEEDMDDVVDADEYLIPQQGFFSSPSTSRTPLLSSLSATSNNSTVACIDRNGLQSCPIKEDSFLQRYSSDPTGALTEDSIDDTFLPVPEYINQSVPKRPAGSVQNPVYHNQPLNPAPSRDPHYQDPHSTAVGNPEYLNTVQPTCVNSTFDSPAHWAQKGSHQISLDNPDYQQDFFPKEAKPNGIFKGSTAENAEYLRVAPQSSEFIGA

BTK [5] = target: T1, BTK; assay: BTK inhibitory activity; type: biochemical; details: (IC50 lapatinib/IC50 Compound)*100
HER-2 [6] = target: T2, HER-2; assay: HER-2 kinase inhibitory activity; type: biochemical; details: (IC50 lapatinib/IC50 Compound)*100
[7] = test system: drug-resistant HCT-116/ADR cells; assay: Potentiation of DOX cytotoxicity (reversal DOX effect, P-gp modulation); type: cell-based, human; details: IC50 (DOX) without modulator / IC50 (DOX) with modulator
HCT-116 cells = assay: In vitro cytotoxicity; details: Homo sapiens, HCT-116, read-out: Cytotoxicity IC50, HCT-116
HCT-116/ADR cells = assay: cells; details: Homo sapiens, HCT-116, read-out: Cytotoxicity IC50, HCT-116/ADR

Compound: O=C(O)c1cn(C2CC2)c2cc(N3CCNCC3)c(F)cc2c1=O [Ciprofloxacin, reference compound]
- zone of inhibition at 1000 µg/mL (Pseudomonas aeruginosa; Pseudomonas aeruginosa, 24 h, read-out: Diameter of inhibition zone, P. aeruginosa): 23 mm
- % activity index, P. aeruginosa (Pseudomonas aeruginosa; relative to ciprofloxacin): 100%
- MIC (B. subtilis; 24 h, read-out: MIC, B. subtilis): 2 µg/mL (≈ 6.04 µM)
- MIC (B. subtilis; read-out: MIC (µg/mL) B. subtilis): 2 µg/mL (≈ 6.04 µM)
- MIC (P. aeruginosa): 1 µg/mL (≈ 3.02 µM)
- DIZs against bacteria [1]: 23–26 mm
- zone of inhibition at 1000 µg/mL (Bacillus subtilis; Bacillus subtilis, 24 h, read-out: Diameter of inhibition zone, B. subtilis): 23 mm
- % activity index, B. subtilis (Bacillus subtilis; relative to ciprofloxacin): 100%
- zone of inhibition at 1000 µg/mL (Staphylococcus aureus; Staphylococcus aureus, 24 h, read-out: Diameter of inhibition zone, S. aureus): 24 mm
- % activity index, S. aureus (Staphylococcus aureus; relative to ciprofloxacin): 100%
- MIC (E. coli): 0.5 µg/mL (≈ 1.51 µM)
- MIC (S. aureus; 24 h, read-out: MIC, S. aureus): 1 µg/mL (≈ 3.02 µM)
- MIC (S. aureus; read-out: MIC (µg/mL) S. aureus): 1 µg/mL (≈ 3.02 µM)
- zone of inhibition at 1000 µg/mL (Escherichia coli; Escherichia coli, 24 h, read-out: Diameter of inhibition zone, E. coli): 26 mm
- % activity index, E. coli (Escherichia coli; relative to ciprofloxacin): 100%

Compound: Clc1ccccc1C(c1ccccc1)(c1ccccc1)n1ccnc1 [Clotrimazole, reference compound]
- zone of inhibition at 1000 µg/mL (Candida albicans; Candida albicans, 24 h, read-out: Diameter of inhibition zone, C. albicans): 27 mm
- % activity index, C. albicans (Candida albicans; relative to clotrimazole): 100%
- MIC (C. albicans): 2 µg/mL (≈ 5.8 µM)
- MIC (A. flavus): 1 µg/mL (≈ 2.9 µM)
- zone of inhibition at 1000 µg/mL (Aspergillus flavus; Aspergillus flavus, 24 h, read-out: Diameter of inhibition zone, A. flavus): 25 mm
- % activity index, A. flavus (Aspergillus flavus; relative to clotrimazole): 100%
- DIZs against fungi [2]: 25–27 mm

Compound: COC(=O)C1=C(C)NC(C)=C(C(=O)OCCCN2CCC(c3ccccc3)(c3ccccc3)CC2)[C@@H]1c1cccc([N+](=O)[O-])c1 [Dexniguldipine, dexniguldipine]
- times less potent than (+)-niguldipine in its interaction with L-type calcium channels (L-type calcium channels): 40

Compound: CCOC(=O)C1=C(C)NC(C)=C(C(=O)OCC)C1c1ccc2c(c1)Cc1ccccc1-2 [Compound II]
- IC50 (BTK [3]): 68.8 nM
- IC50 (HER-2 [4]): 84.5 nM
- IC50 (EGFR): 71.8 nM

Compound: CS(=O)(=O)CCNCc1ccc(-c2ccc3ncnc(Nc4ccc(OCc5cccc(F)c5)c(Cl)c4)c3c2)o1 [Lapatinib, reference compound]
- BTK Potency (BTK [5]): 100.0%
- HER-2 Potency (HER-2 [6]): 100.0%

Compound: COc1cccc2c1C(=O)c1c(O)c3c(c(O)c1C2=O)C[C@@](O)(C(=O)CO)C[C@@H]3O[C@H]1C[C@H](N)[C@H](O)[C@H](C)O1 [DOX, Doxorubicin, reference compound]
- RF (reversal fold activity) [7]: 1
- IC50 (HCT-116 cells): 1150 ± 430 nM
- IC50 (HCT-116/ADR cells): 16910 ± 140 nM

— PMC9481151, “Discovery of new symmetrical and asymmetrical nitrile-containing 1,4-dihydropyridine derivatives as dual kinases and P-glycoprotein inhibitors: synthesis, in vitro assays, and in silico studies” (Journal of Enzyme Inhibition and Medicinal Chemistry, 2022)
